The numbers were not newly measured in patent US9333171B2, “Controlled-release CNS modulating compositions and methods for the treatment of otic disorders” (Otonomy, Inc., priority 2008, dated 2016), which cites them from elsewhere.

For one data set, the system named is V2-R. Conditions: infusion into the scala tympani.
In a further data set the test system is guinea pigs. Conditions: chronic administration in guinea pigs.

For the molecule `Cc1ccccc1C(=O)Nc1ccc(C(=O)N2CCCC(N(C)C)c3ccccc32)cc1` (centres unmarked) [OPC-31260], the “Effect on Meniere's disease symptoms” value in the data set with V2-R is listed as “marked reduction of Meniere's disease symptoms”.

On to `NC(=O)CC[C@@H]1NC(=O)[C@H](Cc2ccccc2)NC(=O)[C@H](Cc2ccc(O)cc2)NC(=O)[C@@H](N)CSSC[C@@H](C(=O)N2CCC[C@H]2C(=O)N[C@@H](CCCN=C(N)N)C(=O)NCC(N)=O)NC(=O)[C@H](CC(N)=O)NC1=O` [VP, vasopressin], for which the “Induction of endolymphatic hydrops” value in the data set on guinea pigs is recorded as “induce endolymphatic hydrops”.
